Values after ≈ are worked out from the molar mass of the structure shown. Bounds are passed on as bounds.

This is an account of results in patent US4740502A, “Semisynthetic erythromycin antibiotics” (Abbott Laboratories, priority 1986, dated 1988).

The subject of data set [1] is stomach, duodenum and jejunum. Put plainly: Gastrointestinal motility (stimulating activity) in a dog model, strain gauges. The protocol:
Contractions in the gut were recorded with surgically implanted strain gauges. The contractile scores were determined according to the method of Jacoby, et al., as described in "Gastrointestinal Actions of Metoclopramide," Gastroenterology, Vol. 52, No. 4 (1967), pp. 676-684 by giving a numerical score to the height of each recorded contraction in the one hour period after administration of the test compound. […] Ratios were calculated for the stomach, duodenum and jejunum, and a final arithmetic mean index was calculated and reported in Table I.

Another data set relates to E. coli H560. Briefly: Agar dilution MIC, E. coli H560. To be noted: Escherichia coli, H560, 22 h. In general terms: In agar dilution, organisms are placed on agar that contains the substance at set levels.
The test system of a further data set is Staph. epidermidis 3519. Briefly: Agar dilution MIC, Staph. epidermidis 3519. To be noted: Staphylococcus epidermidis, 3519, 22 h.
In a further data set the test system is Strep. pyogenes 930. Put plainly: Agar dilution MIC, Strep. pyogenes 930. The note with it: Streptococcus pyogenes, 930, 22 h.
In data set [2] the test system is Pseudomonas aeruginosa K799/61. Put plainly: Agar dilution MIC, Pseudomonas aeruginosa K799/61. To be noted: K799/61, 22 h.
The subject of a further data set is Strep. faecium ATCC 8043. Put plainly: Agar dilution MIC, Strep. faecium ATCC 8043. The note with it: Enterococcus faecium, ATCC8043, 22 h.
The subject of data set [3] is Providencia stuartii CMX 640. Briefly: Agar dilution MIC, Providencia stuartii CMX 640. The note with it: CMX640, 22 h.
The test system of the next data set is Acinetobacter SP CMX 669. Briefly: Agar dilution MIC, Acinetobacter SP CMX 669. To be noted: SPCMX669, 22 h.
For data set [4], the system named is Pseudomonas aeruginosa K799/WT. Briefly: Agar dilution MIC, Pseudomonas aeruginosa K799/WT. The note with it: 22 h.
In data set [5] the test system is Ent. aerogenes ATCC 10348. Put plainly: Agar dilution MIC, Ent. aerogenes ATCC 10348. To be noted: Klebsiella aerogenes, ATCC10348, 22 h.
The subject of data set [6] is Pseudomonas aeruginosa 5007. Put plainly: Agar dilution MIC, Pseudomonas aeruginosa 5007. To be noted: Pseudomonas aeruginosa, 5007, 22 h.
A further data set deals with Strep. bovis A5169. Put plainly: Agar dilution MIC, Strep. bovis A5169. To be noted: Streptococcus equinus, A5169, 22 h.
Another data set deals with Staph. aureus ATCC 6538P. Put plainly: Agar dilution MIC, Staph. aureus ATCC 6538P. The note with it: Staphylococcus aureus, ATCC6538P, 22 h.
Data set [7] relates to Strep. agalactiae CMX 508. Put plainly: Agar dilution MIC, Strep. agalactiae CMX 508. To be noted: Streptococcus agalactiae, CMX508, 22 h.
A further data set concerns Strep. pyogenes EES61. Put plainly: Agar dilution MIC, Strep. pyogenes EES61. The note with it: Streptococcus pyogenes, EES61, 22 h.
The next data set concerns E. coli JUHL. Put plainly: Agar dilution MIC, E. coli JUHL. The note with it: Escherichia coli, 22 h.
Data set [8] concerns Pseudomonas aeruginosa BMH10. Put plainly: Agar dilution MIC, Pseudomonas aeruginosa BMH10. The note with it: BMH10, 22 h.
The subject of another data set is E. coli KNK 437. Put plainly: Agar dilution MIC, E. coli KNK 437. To be noted: Escherichia coli, KNK437, 22 h.
The next data set has as its system Staph. aureus CMX 686B. Briefly: Agar dilution MIC, Staph. aureus CMX 686B. The note with it: Staphylococcus aureus, CMX686B, 22 h.
The subject of another data set is E. coli SS. Put plainly: Agar dilution MIC, E. coli SS. To be noted: Escherichia coli, 22 h.
A further data set relates to Micrococcus luteus 4698. Briefly: Agar dilution MIC, Micrococcus luteus 4698. The note with it: Micrococcus luteus, 4698, 22 h.
The test system of the next data set is E. coli DC-2. Put plainly: Agar dilution MIC, E. coli DC-2. To be noted: Escherichia coli, DC2, 22 h.
The subject of the next data set is Micrococcus luteus 9341. Put plainly: Agar dilution MIC, Micrococcus luteus 9341. The note with it: Micrococcus luteus, 9341, 22 h.
The test system of data set [9] is Klebsiella pneumoniae 8045. Put plainly: Agar dilution MIC, Klebsiella pneumoniae 8045. The note with it: Klebsiella pneumoniae, 8045, 22 h.
The test system of another data set is Pseudomonas cepacia 2961. Briefly: Agar dilution MIC, Pseudomonas cepacia 2961. The note with it: Burkholderia cepacia, 2961, 22 h.
Data set [10] relates to Staph. epidermidis 3519 RARI. Put plainly: Agar dilution MIC, Staph. epidermidis 3519 RARI. The note with it: Staphylococcus epidermidis, 22 h.
The next data set relates to Staph. aureus A5177. Put plainly: Agar dilution MIC, Staph. aureus A5177. To be noted: Staphylococcus aureus, A5177, 22 h.
Setting [11] is: 4 mg/kg intravenously, one hour period, mean of stomach, duodenum and jejunum ratios to erythromycin A lactobionate.

As to `CC[C@H]1OC(=O)[C@H](C)[C@@H](O[C@H]2C[C@@](C)(OC)[C@@H](O)[C@H](C)O2)[C@H](C)[C@@H](O[C@@H]2O[C@H](C)C[C@H](N(C)C)[C@H]2O)[C@](C)(OC)C[C@@H](C)C(=O)[C@H](C)[C@@H](O)[C@]1(C)O` [6-O--Me--Ery A, 6-O-methyl erythromycin A], in data set [1] (in vivo, iv, 4 mg/kg), the “Gastrointestinal Motility Index” value was 0.37 and the “stimulation of the gastrointestinal tissues” value (shortened to “stimulation”) was “less of a gastrointestinal response”.
Turning to `CC[C@H]1OC(=O)[C@H](C)[C@@H](O[C@H]2C[C@@](C)(OC)[C@@H](O)[C@H](C)O2)[C@H](C)[C@@H](O[C@@H]2O[C@H](C)C[C@H](N(C)C)[C@H]2O)[C@](C)(O)C[C@@H](C)C(=O)[C@H](C)[C@@H](O)[C@]1(C)O` [erythromycin A lactobionate], the “stimulation” value in data set [1] (in vivo, iv, 4 mg/kg) was “pronounced stimulation of the stomach, duodenum, jejunum and ileum”.
`CC[C@H]1OC(=O)[C@H](C)[C@@H](O[C@H]2C[C@@](C)(OC)[C@@H](OC(N)=O)[C@H](C)O2)[C@H](C)[C@@H](O[C@@H]2O[C@H](C)C[C@H](N(C)C)[C@H]2O)[C@](C)(O)C[C@@H](C)C(=O)[C@H](C)[C@@H](O)[C@H]1C` [Example 2, Erythromycin B-4"-carbamate]: in [1] (setting [11]), the “Gastrointestinal Motility Index” value is listed as 0.17.
For `CC[C@H]1OC(=O)[C@H](C)[C@@H](O[C@H]2C[C@@](C)(OC)[C@@H](O)[C@H](C)O2)[C@H](C)[C@@H](O[C@@H]2O[C@H](C)C[C@H](N(C)C)[C@H]2O)[C@](C)(O)C[C@@H](C)C(=O)[C@H](C)[C@@H](O)[C@H]1C` [Ery B, erythromycin B], the “Gastrointestinal Motility Index” value in [1] (in vivo, iv, 4 mg/kg) stood at 2.47.
`CC[C@H]1OC(=O)[C@H](C)[C@@H](O[C@H]2C[C@@](C)(OC)[C@@H](O)[C@H](C)O2)[C@H](C)[C@@H](O[C@@H]2O[C@H](C)C[C@H](N(C)C)[C@H]2O)[C@](C)(O)C[C@@H](C)C(=O)[C@H](C)[C@@H](O)[C@]1(C)O` [Erythromycin A]: the minimum inhibitory concentration (MIC) was 6.2 µg/mL (≈ 8.45 µM) in the data set on E. coli H560; 0.1 µg/mL (≈ 0.136 µM) in the data set on Staph. epidermidis 3519; above 100 µg/mL with Strep. pyogenes 930; 1.56 µg/mL (≈ 2.13 µM) in data set [2]; 0.05 µg/mL (≈ 0.0681 µM) with Strep. faecium ATCC 8043; above 100 µg/mL in data set [3]. For the same molecule, the minimal inhibitory concentration (MIC) with Acinetobacter SP CMX 669 was 3.1 µg/mL (≈ 4.22 µM); in [4] it was 50 µg/mL (≈ 68.1 µM); in data set [5] it was 50 µg/mL (≈ 68.1 µM); in data set [6] it was above 100 µg/mL.
Regarding `CC[C@H]1OC(=O)[C@H](C)[C@@H](O[C@H]2C[C@@](C)(OC)[C@@H](OC(N)=O)[C@H](C)O2)[C@H](C)[C@@H](O[C@@H]2O[C@H](C)C[C@H](N(C)C)[C@H]2O)[C@](C)(OC)C[C@@H](C)C(=O)[C@H](C)[C@@H](O)[C@]1(C)O` [Example 1, 6-O-methyl-erythromycin A-4"-carbamate], the minimal inhibitory concentration (MIC) is 6.2 µg/mL (≈ 7.84 µM) in the data set on E. coli H560; 0.05 µg/mL (≈ 0.0632 µM) with Staph. epidermidis 3519; 0.02 µg/mL (≈ 0.0253 µM) against Strep. bovis A5169; above 100 µg/mL against Strep. pyogenes 930; 0.02 µg/mL (≈ 0.0253 µM) in the data set with Staph. aureus ATCC 6538P; 1.56 µg/mL (≈ 1.97 µM) in [2]. The MIC in [7] stood at 0.02 µg/mL (≈ 0.0253 µM); in the data set with Strep. faecium ATCC 8043, 0.05 µg/mL (≈ 0.0632 µM); with Strep. pyogenes EES61 it was 0.01 µg/mL (≈ 0.0126 µM); in data set [3] it was 100 µg/mL (≈ 126 µM); in the data set with Acinetobacter SP CMX 669 it was 6.2 µg/mL (≈ 7.84 µM); in the data set on E. coli JUHL, 12.5 µg/mL (≈ 15.8 µM). In addition, the minimal inhibitory concentration (MIC) in data set [8] is 50 µg/mL (≈ 63.2 µM); in the data set on E. coli KNK 437 it was 25 µg/mL (≈ 31.6 µM); in the data set on Staph. aureus CMX 686B, 0.05 µg/mL (≈ 0.0632 µM); with E. coli SS, 0.2 µg/mL (≈ 0.253 µM); in the data set on Micrococcus luteus 4698 it was 0.39 µg/mL (≈ 0.493 µM); in the data set on E. coli DC-2 it was 50 µg/mL (≈ 63.2 µM). Further, the MIC in the data set with Micrococcus luteus 9341 came to 0.02 µg/mL (≈ 0.0253 µM); in [4], 50 µg/mL (≈ 63.2 µM); in [9], 50 µg/mL (≈ 63.2 µM); against Pseudomonas cepacia 2961, 50 µg/mL (≈ 63.2 µM); in [10], 0.1 µg/mL (≈ 0.126 µM); in [5], 25 µg/mL (≈ 31.6 µM). Further, the figures for the MIC (in data set [6]; against Staph. aureus A5177) were 50 µg/mL (≈ 63.2 µM) and 0.39 µg/mL (≈ 0.493 µM), respectively. In addition, the “Gastrointestinal Motility Index” value in data set [1] (setting [11]) is given as 0.03.
As for `CC[C@H]1OC(=O)[C@H](C)[C@@H](O[C@H]2C[C@@](C)(OC)[C@@H](O)[C@H](C)O2)[C@H](C)[C@@H](O[C@@H]2O[C@H](C)C[C@H](N(C)C)[C@H]2O)[C@](C)(O)C[C@@H](C)C(=O)[C@H](C)[C@@H](O)[C@H]1C` [erythromycin B lactobionate], the “stimulation” value in data set [1] (in vivo, iv, 4 mg/kg) was “pronounced stimulation of the stomach, duodenum, jejunum and ileum”.
`CC[C@H]1OC(=O)[C@H](C)[C@@H](O[C@H]2C[C@@](C)(OC)[C@@H](OC(N)=O)[C@H](C)O2)[C@H](C)[C@@H](O[C@@H]2O[C@H](C)C[C@H](N(C)C)[C@H]2O)[C@](C)(O)C[C@@H](C)C(=O)[C@H](C)[C@@H](O)[C@]1(C)O` [Example 4, Erythromycin A-4"-carbamate]: the “Gastrointestinal Motility Index” value in data set [1] (setting [11]) is recorded as 0.11.

A word on the MIC: it is the least concentration at which growth counts as inhibited. The low end stands for inhibition by little substance, the high end for a need for much substance.
